In US9687522B2, “Methods of treating a subject afflicted with an autoimmune disease using predictive biomarkers of clinical response to glatiramer acetate therapy in multiple sclerosis” (TEVA PHARMACEUTICAL INDUSTRIES, LTD., priority 2010, dated 2017):

Experiments:
IL-10 = assay: Serum IL-10 by ELISA in GA-treated MS patients; format: in vivo, human
Description: (§1) Approximately 60 cc of blood was obtained by venipuncture from each MS patient pre-treatment and at successive time points during treatment (3 months, 6 months, 9-12 months and 24 months). PBMC were purified using Ficoll-Hypaque gradients as described in the supplier's protocol (ICN Biomedicals Inc. Ohio, USA). Samples from collaborating centers were sent via overnight FedEx™ delivery at room temperature and processed immediately upon arrival.
(§2) Interleukin-18 and caspase-1 levels were detected by human ELISA kits (Sandwich ELISA, Bender Nedaystems, USA). The sensitivity of the ELISA was 9.2 and 3.3 pg/ml for IL-18 and caspase-1 respectively. TGF-β, TNF-α, IL-4, IFN-γ, IL-17 and IL-10 levels were detected by human ELISA kits from ebioscience (San Diego Calif., 92121 USA). The sensitivity of the ebioscience kits were 60 pg/ml, 4 pg/ml, 2 pg/ml, 4 pg/ml, 4 pg/ml and 2 pg/ml respectively. BDNF was detected by the Human BDNF ELISA kit from Chemicon International (catalog #CYT306). The sensitivity of the BDNF ELISA was 7.8 pg/ml. […] Duplicates should be within 20% of the mean.

PBMC = assay: Lymphoproliferation assay (3H-thymidine) of ex-vivo PBMC; format: cell-based, human
Protocol: as §1
2×10^5 PBMC/well were seeded in 96 well U-bottom micro titer plate in the absence of antigen (unstimulated condition) (US) or the presence of GA at 40 and 100 μg/ml (Teva Pharmaceutical Industries, Ltd., Israel), tetanus toxoid (TT 5 μg) obtained from UMASS (University of Mass, Worcester, Mass.). The latter was used as a control antigen. Supernatants were collected from cultured cells at days 1, 3 and 5 for various assays. After 5 days, 1 μCi ^3H-thymidine was added. Cells were harvested 18 hours later using TOMTEC cell harvester (TOMTEC, Hamden Conn.). Incorporated radioactivity was measured using a liquid Scintillation counter (Wallac MicroBeta Trilux, PerkinElmer, Boston, Mass.).

[1] = system: relapsing-remitting MS (RR-MS) patients; assay: Prospective 2-year study of GA-treated RR-MS patients: ARR and EDSS; format: in vivo, human
Protocol: This is a prospective study in which sixty-two relapsing-remitting MS (RR-MS) patients treated with GA were classified clinically as GA-R (N=42) or GA-HR/NR (N=20) after 2 years of treatment. Cytokine levels, brain-derived neurotrophic factor (BDNF) levels, and T-cell proliferation to GA were analyzed at baseline, 3, 6, 9-12 and 24 months and assessed for their predictive value of clinical response after 2 years of treatment.
Sixty-two patients diagnosed with definite RR-MS (relapsing-remitting MS) according to the McDonald criteria (33) were included in the study. Following recruitment, the patients were treated with GA for at least 2 years. Subjects were closely followed up at the University of Medicine and Dentistry New Jersey (UMDNJ)-Robert Wood Johnson Medical School, University of Maryland Center for MS, the Gimbel MS Center, Teaneck, N.J. and the Carolina Medical Center-MS Center, Charlotte, N.C. Fifty patients were females with a mean age of 41±10.3 years and 12 were males with a mean age of 39.0±11.9 years. Patients had at least one relapse during the year prior to initiation of GA therapy (Table 2). After at least 2 years on GA therapy, patients were classified as GA-R (n=42) or GA-HR/NR (n=20) based on a clinical criteria more stringent than those recently reported in the literature. (34) A responder (R) is a patient with an annual relapse rate (ARR)<0.5 and no evidence of disease progression as measured by EDSS (expanded disability status scale). A hypo/non-responder (HR/NR) is a patient with an ARR>0.5 and/or with progression in the EDSS of at least 1 point sustained for 6 months (Table 3).
The patients were classified as GA-responders or hypo/non-responders after being treated with GA for at least 24 months, based on their ARR and progression in disability while on treatment (Tables 1 and 3). The mean disease duration was 8.3±6.1 years for the GA-R group and 12.2±8.2 years for GA-HR/NR group. The mean treatment duration was 26.4±6.6 months for the GA-R group and 26.1±5.9 months for the GA-HR/NR group.

[2] = system: class II MHC molecules of mouse and human origin; settings: cited from earlier work
BDNF = assay: Serum BDNF by ELISA in GA-treated MS patients; format: in vivo, human; settings: GA-R and GA-HR/NR, all treatment time points
Description: as §1, §2

Glatiramer acetate [GA]
Serum IL-10 level (IL-10; HR/NR, 3 mo): 40 ± 7.0 pg/mL | Serum IL-10 level (IL-10; HR/NR, 6 mo): 37 ± 8.3 pg/mL | Serum IL-10 level (IL-10; HR/NR, 9-12 mo): 40 ± 7.0 pg/mL | Serum IL-10 level (IL-10; HR/NR, 24 mo): 37.6 ± 5 pg/mL | Serum IL-10 level (IL-10; HR/NR, Pre-Rx): 38 ± 9 pg/mL | Serum IL-10 level (IL-10; R, 3 mo): 47 ± 8.1 pg/mL | Serum IL-10 level (IL-10; R, 6 mo): 67 ± 11 pg/mL | Serum IL-10 level (IL-10; R, 9-12 mo): 69.8 pg/mL | Serum IL-10 level (IL-10; R, 24 mo): 56 ± 18 pg/mL | Serum IL-10 level (IL-10; R, Pre-Rx): 32 ± 4.5 pg/mL | Δ IL-10 6 months, Median (Non-Responders) (IL-10; serum, change from baseline): −1.5 | Δ IL-10 6 months, Median (Responders) (IL-10; serum, change from baseline): 15 | Δ IL-10 9 months, Median (Non-Responders) (IL-10; serum, change from baseline): −2 | Δ IL-10 9 months, Median (Responders) (IL-10; serum, change from baseline): 42 | Δ IL-10 24 months, Median (Non-Responders) (IL-10; serum, change from baseline): 1 | Δ IL-10 24 months, Median (Responders) (IL-10; serum, change from baseline): 29 | ex-vivo PBMC proliferative response over the course of GA treatment (PBMC; antigens GA 40 and 100 μg/ml, TT 5 μg/ml, ΔCPM): initial increase in the proliferative response to GA and TT at 3 months during treatment followed by a decline after 6 months of treatment | PBMC proliferation, GA-R versus GA-HR/NR (PBMC; before or during treatment at 3, 6, 12 months or 2 years, p >0.05): no difference in PBMC proliferation to GA or TT between GA-R and GA-HR/NR | Mean ARR ([1]; GA-HR/NR, 24 mo Rx): 0.75 ± 0.50 | Mean EDSS ([1]; GA-HR/NR, 24 mo Rx): 3.2 ± 1.37 | Mean ARR ([1]; GA-HR/NR, Pre-Rx): 0.80 ± 0.49 | Mean EDSS ([1]; GA-HR/NR, Pre-Rx): 1.95 ± 0.95 | increase in the EDSS ([1]; GA-HR/NR, during treatment): 1.12 point | reduction in the ARR ([1]; GA-HR/NR, during treatment): 6.25% | Mean ARR ([1]; GA-R, 24 mo Rx): 0.14 ± 0.25 | Mean EDSS ([1]; GA-R, 24 mo Rx): 1.57 ± 1.0 | Mean ARR ([1]; GA-R, Pre-Rx): 0.67 ± 0.46 | Mean EDSS ([1]; GA-R, Pre-Rx): 2.18 ± 1.08 | decrease in the EDSS ([1]; GA-R, during treatment): 0.61 point | reduction in the ARR ([1]; GA-R, during treatment): 79% | binding to class II MHC molecules [2]: binds promiscuously and with high affinity | Serum BDNF levels, change during GA treatment (BDNF): did not show significant changes during treatment from baseline in either group
